Holding throughout (format): biochemical
One experiment has as its target human MAGL (hMAGL) (Homo sapiens (Human), UniProt Q99685). Briefly: MAGL enzyme inhibition assay (4-nitrophenylacetate). Particulars: relative to disulfiram / unsubstituted analogue. The method, then: The plate was mixed for 30 s and incubated at room temperature for 30 min.
Another experiment concerns the target ALDH1a1 (Homo sapiens (Human), UniProt P00352). The experiment can be described thus: ALDH assay (diaphorase/resazurin), ALDH1a1 inhibition. From the text: (§1) ALDH catalyzes the oxidation of acetaldehyde to acetic acid while reducing NAD+ to NADH. The formation of NADH is fluorescently detected using diaphorase/resazurin system. Diaphorase utilizes NADH formed from ALDH reaction to produce the fluorescent molecule resorufin from resazurin. See Davis, M. I.; Shen, M.; Simeonov, A.; Hall, M. D., Diaphorase Coupling Protocols for Red-Shifting Dehydrogenase Assays.
(§2) The reagent ALDH1a1 is from R&D Systems (Minneapolis, MN). ALDH2 is from Prospect Bio (East Brunswick, NJ). Acetaldehyde is from Cayman Chemicals (Ann Arbor, MI). NAD^+, and Resazurin sodium salt are from Sigma (St. Louis, MO). Diaphorase is from Reaction Biology (Malvern PA). Zaba micro spin columns are from ThermoFisher scientific (Waltham, MA). […] Desalted samples from each enzyme were pooled together and placed in ice until use. Reaction buffer (50 mM sodium pyrophosphate buffer at pH 8.8, 0.01% Brij35) degassed using vacuum for 10 mins until no visible air bubbles were seen.
(§3) 5 μl of reaction buffer was delivered to ‘no enzyme’ background control wells. Test compounds were prepared in 100% DMSO by serial dilution in 100× of assay concentration. After adding the test compounds, reaction plate was centrifuged briefly in 1200 rpm, then incubated for 20 min at room temperature, to pre-incubate enzyme and compounds. […] Reaction plate was briefly centrifuged and sealed with a plastic film to limit evaporation. After incubation at room temperature for 60 min, 10 μl of detection reagent (15 μg/ml diaphorase, 30 μM resazurin prepared in the degassed reaction buffer) was added. Reaction plate was briefly centrifuged and incubated for 10 minutes at room temperature in the dark.

In the next experiment the target is human FAAH (hFAAH) (Homo sapiens (Human), UniProt O00519). Briefly: FAAH enzyme inhibition assay (Cayman screening kit, AMC-arachidonoyl amide). On the set-up: key to IC50 (μM) ± SE (hFAAH): NI: no inhibition seen at the tested conditions. The method, then:
FAAH inhibition assay was performed using Fatty Acid Amide Hydrolase Inhibitor Screening Assay Kit (Item #10005196), Cayman (1180 E Ellsworth Rd Ann Arbor, MI, USA). […] Manufacturer's protocol was followed to perform the assay. The assay buffer (125 mM Tri-HCl with 1 mM EDTA, pH 9.0) was used to dilute the FAAH human recombinant enzyme. AMC-Arachidonoyl amide, at a concentration of 400 μM was then used as the FAAH substrate. Samples were mixed for 30 s and incubated at 37° C. for 30 min. The fluorescent by-product AMC (7-amino-4-methylcoumarin) released by the FAAH enzyme was detected and quantified at an excitation wavelength of 355 nm and emission wavelength of 460 nm.

The next experiment deals with ALDH2 (Homo sapiens (Human), UniProt P05091). Briefly: ALDH assay (diaphorase/resazurin), ALDH2 inhibition.
Chain of ALDH2 (P05091 18-517): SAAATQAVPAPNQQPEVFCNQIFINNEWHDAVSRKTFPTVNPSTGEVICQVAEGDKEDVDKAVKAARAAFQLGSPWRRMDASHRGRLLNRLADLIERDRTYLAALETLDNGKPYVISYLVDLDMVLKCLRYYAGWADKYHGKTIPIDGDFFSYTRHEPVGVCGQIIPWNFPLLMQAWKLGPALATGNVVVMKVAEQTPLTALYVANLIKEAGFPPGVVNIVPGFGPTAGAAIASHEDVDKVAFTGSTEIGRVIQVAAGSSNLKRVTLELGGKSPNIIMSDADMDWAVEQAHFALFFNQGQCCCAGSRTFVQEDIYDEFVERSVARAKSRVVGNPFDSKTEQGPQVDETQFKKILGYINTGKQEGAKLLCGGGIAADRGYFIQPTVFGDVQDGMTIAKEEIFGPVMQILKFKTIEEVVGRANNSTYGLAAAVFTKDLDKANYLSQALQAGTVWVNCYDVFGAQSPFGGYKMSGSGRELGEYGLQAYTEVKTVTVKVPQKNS
Source text: as §1, §2, §3
For orientation: Resazurin is reduced to fluorescent resorufin, in cell work by metabolically active cells.

[1] abbreviates: Table II, average of at least two different experiments.

The results in this text go back to patent US11753371B2 (BATTERJEE MEDICAL COLLEGE, priority 2021, dated 2023).

As a reminder, the IC50 is the concentration needed to halve the response being measured.

Chain of human FAAH (hFAAH) (O00519 whole entry): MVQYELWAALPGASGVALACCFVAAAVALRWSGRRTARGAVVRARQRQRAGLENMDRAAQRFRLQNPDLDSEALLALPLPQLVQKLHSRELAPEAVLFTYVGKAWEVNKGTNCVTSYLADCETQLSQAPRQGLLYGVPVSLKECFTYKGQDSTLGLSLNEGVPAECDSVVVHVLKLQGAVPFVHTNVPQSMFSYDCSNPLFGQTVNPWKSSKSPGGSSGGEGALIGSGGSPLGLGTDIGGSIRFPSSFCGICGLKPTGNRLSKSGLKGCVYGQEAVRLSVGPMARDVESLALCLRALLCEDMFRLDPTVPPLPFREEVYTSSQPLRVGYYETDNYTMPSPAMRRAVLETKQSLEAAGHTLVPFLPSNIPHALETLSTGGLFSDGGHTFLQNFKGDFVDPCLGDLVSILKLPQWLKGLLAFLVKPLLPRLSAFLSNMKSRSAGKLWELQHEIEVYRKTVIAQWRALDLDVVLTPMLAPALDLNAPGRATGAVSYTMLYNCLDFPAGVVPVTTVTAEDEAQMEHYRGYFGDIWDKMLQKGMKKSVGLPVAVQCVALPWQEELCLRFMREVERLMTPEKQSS
Chain of ALDH1a1 (P00352 whole entry): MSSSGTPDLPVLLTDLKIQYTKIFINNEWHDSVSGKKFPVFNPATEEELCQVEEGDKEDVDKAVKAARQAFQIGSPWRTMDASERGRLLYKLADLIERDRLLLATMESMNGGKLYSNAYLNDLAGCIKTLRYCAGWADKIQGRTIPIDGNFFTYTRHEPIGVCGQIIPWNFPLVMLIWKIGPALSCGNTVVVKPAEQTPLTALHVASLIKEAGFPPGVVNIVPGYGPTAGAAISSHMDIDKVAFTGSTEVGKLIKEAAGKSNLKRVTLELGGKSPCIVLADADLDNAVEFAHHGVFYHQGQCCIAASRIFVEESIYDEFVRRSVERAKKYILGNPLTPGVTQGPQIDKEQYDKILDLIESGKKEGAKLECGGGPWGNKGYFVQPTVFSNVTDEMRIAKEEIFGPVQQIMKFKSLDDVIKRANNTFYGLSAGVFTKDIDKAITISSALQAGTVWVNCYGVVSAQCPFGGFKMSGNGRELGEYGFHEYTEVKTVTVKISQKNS
Chain of human MAGL (hMAGL) (Q99685 whole entry): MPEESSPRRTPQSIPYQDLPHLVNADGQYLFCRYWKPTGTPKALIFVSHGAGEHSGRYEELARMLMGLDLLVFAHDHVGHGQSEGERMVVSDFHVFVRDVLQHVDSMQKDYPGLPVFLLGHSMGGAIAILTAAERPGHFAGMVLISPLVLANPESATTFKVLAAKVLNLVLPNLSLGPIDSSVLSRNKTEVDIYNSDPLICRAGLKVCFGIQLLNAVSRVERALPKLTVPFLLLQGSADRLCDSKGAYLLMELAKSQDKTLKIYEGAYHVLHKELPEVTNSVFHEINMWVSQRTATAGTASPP

In the case of `CC(C)CN(CC(C)C)C(=S)SSC(=S)N(CC(C)C)CC(C)C` [Compound I-2j], the “fold decrease in MAGL inhibitory activity” value at human MAGL (hMAGL) is “up to 15 fold”. Also, on ALDH1a1, the “ALDH1a1 inhibitory activity (in words)” value is recorded as “complete loss of activity”. In addition, at human FAAH (hFAAH), the “FAAH inhibitory activity (in words)” value is listed as “no inhibition of FAAH”. For the same compound, the “IC50 (μM) ± SE (hFAAH)” value against human FAAH (hFAAH) (setting [1]) is recorded as “NI”.

As to `CCN(Cc1ccc(C(=O)O)cc1)C(=S)SSC(=S)N(CC)Cc1ccc(C(=O)O)cc1` [Compound I-2d], the “fold decrease in MAGL inhibitory activity” value on human MAGL (hMAGL) was 20 fold. In addition, on ALDH1a1 (para carboxylic acid versus I-2a), the “change in ALDH1a1 inhibitory activity relative to I-2a” value is “tenfold decrease”. The “FAAH inhibitory activity (in words)” value on human FAAH (hFAAH) was “devoid of anti-FAAH activity”. Also, the “IC50 (μM) ± SE (hFAAH)” value at human FAAH (hFAAH) (setting [1]) was “NI”.

As to `CCN(C)C(=S)SSC(=S)N(C)CC` [Compound I-2g], the IC50 came out at 0.32 ± 0.04 µM at ALDH2 (Table I, mean of at least two independent experiments, read-out: IC50 (μM) ± SE (ALDH2)) and 0.02 ± 0.01 µM at ALDH1a1 (Table I, mean of at least two independent experiments, read-out: IC50 (μM) ± SE (ALDH1a1)).

As for `CCN(CCC(=O)O)C(=S)SSC(=S)N(CC)CCC(=O)O` [Compound I-2e, bis(N-carboxylethylethylthiocarbamoyl)disulfide], at human FAAH (hFAAH) (Table II, average of at least two different experiments, read-out: IC50 (μM) ± SE (hFAAH)), the IC50 was 122 ± 1.57 µM.

Regarding `CC(=O)N[C@@H](CS)C(=O)O` [5 N•Acetyl-i-Cysteine, N•Acetyl-i-Cysteine], the “ALDH2 inhibitory activity (in words)” value at ALDH2 is recorded as “none of them showed any activity”. In addition, the “ALDH1a1 inhibitory activity (in words)” value at ALDH1a1 is recorded as “none of them showed any activity”.

Regarding `CC(C)N(C(=S)SSC(=S)N(C(C)C)C(C)C)C(C)C` [Compound I-2h], the “IC50 (μM) ± SE (hFAAH)” value against human FAAH (hFAAH) (setting [1]) is “NI”.

With “bis(N-4-ethoxycarbonylbenzylethylthiocarbamoyl)disulphide [II-2l]”, the “FAAH inhibitory activity (in words)” value on human FAAH (hFAAH) is reported as “devoid of anti-FAAH activity”. Also, on human FAAH (hFAAH) (setting [1]), the “IC50 (μM) ± SE (hFAAH)” value is “NI”.

As to `CCN(Cc1ccc(C)cc1)C(=S)SSC(=S)N(CC)Cc1ccc(C)cc1` [III-2i, bis (N-4-Methylbenzyethylthiocarbamoyl) disulphide], on ALDH2 (Table III), the “Aldh2 (IC50, μM) ± SE” value is “No inhibition”. In addition, at ALDH1a1 (Table III), the “Aldh1a1 (IC50, μM) ± SE” value was “No inhibition”.

Regarding `Cl.NCCS` [3 Cysteamine•HCl, Cysteamine•HCl], on ALDH2, the “ALDH2 inhibitory activity (in words)” value was “none of them showed any activity”. Moreover, on ALDH1a1, the “ALDH1a1 inhibitory activity (in words)” value is “none of them showed any activity”.
